Here are results for 42 molecules from patent publication US20260035384A1, “COMPOUND CONTAINING CYCLOHEXYL” (CHIA TAI TIANQING PHARMACEUTICAL GROUP CO., LTD., priority 2022, published 2026).

SMILES strings stand for the structures. A value given as a limit tells only on which side of the number the result lay.

The first test concerns VCaP cells. The test is described as follows: Assay on inhibitory activity for VCaP cell proliferation (CCK-8). In kind it is cell-based. The following applies: 168 h incubation. The method, then: (§1) 2.1 Assay on inhibitory activity for VCaP cell proliferation VCaP cells in a good growth state were taken, washed with PBS, digested with pancreatin, and added with 5% CSS—FBS phenol red-free DMEM complete medium to terminate the digestion. The cells were collected by using a centrifuge tube, adjusted to a cell density of 1×10^5 cells/mL, and seeded in a 96-well plate (100 μL/well). Meanwhile, compounds were added using a nanoliter pipettor such that the final concentrations of the compounds were 10000 nM-0.61 nM. Two duplicate wells were set for each concentration, and meanwhile, a control was set. After another 168 h of incubation in the cell incubator, the detection reagent CCK-8 (manufacturer: Dojindo, 10 μL/well) was added.
`N#Cc1ccc(O[C@H]2CC[C@H](NC(=O)c3cnc(C4CCN(C5CN(CC6Cc7ccc8c(C9CCC(=O)NC9=O)coc8c7C6)C5)CC4)nc3)CC2)cc1Cl` (stereo partly drawn) [Compound 111] displayed an IC50 of under 100 nM.
`N#Cc1ccc(O[C@H]2CC[C@H](NC(=O)c3cnc(N4CCN(CC5Cc6ccc7c(C8CCC(=O)NC8=O)noc7c6C5)CC4)nc3)CC2)cc1Cl` (stereo partly drawn) [Compound 124] gave an IC50 of under 1000 nM.

Still in this test, the particulars now being: Homo sapiens, 168 h incubation.
`CN(c1ccc(C#N)c(Cl)c1)[C@H]1CC[C@H](NC(=O)c2ccc(N3CCC(CN4CCc5ccc6c(C7CCC(=O)NC7=O)noc6c5CC4)CC3)cc2)CC1` (stereo partly drawn) [Compound 59] yielded an IC50 of under 10 nM.

The test is the same for the next values; noted with them: Homo sapiens, VCaP, 168 h, 168 h incubation.
In turn, `N#Cc1ccc(O[C@H]2CC[C@H](NC(=O)c3ccc(N4CCN(CC5Cc6ccc7c(C8CCC(=O)NC8=O)coc7c6C5)CC4)nn3)CC2)cc1Cl` (stereo partly drawn) [Compound 28] displayed a half-inhibitory concentration (IC50) of under 100 nM.
`N#Cc1ccc(O[C@H]2CC[C@H](NC(=O)c3ccc(N4CCC(CN5CCC(n6ccc7c8c(C9CCC(=O)NC9=O)noc8ccc76)CC5)CC4)nn3)CC2)cc1Cl` (stereo partly drawn) [Compound 41] showed an IC50 of under 10 nM.
Take `N#Cc1ccc(O[C@H]2CC[C@H](NC(=O)c3ccc(N4CCC(CN5CC(n6ncc7c8c(C9CCC(=O)NC9=O)noc8ccc76)C5)CC4)nn3)CC2)cc1Cl` (stereo partly drawn) [Compound 42]: the IC50 was under 10 nM.
As to `N#Cc1ccc(O[C@H]2CC[C@H](NC(=O)c3ccc(C4CCN(C5CC(n6ncc7c8c(C9CCC(=O)NC9=O)noc8ccc76)C5)CC4)nn3)CC2)cc1Cl` (stereo partly drawn) [Compound 46], the IC50 was under 10 nM.
In the case of `CN(c1ccc(C#N)c(Cl)c1)[C@H]1CC[C@H](NC(=O)c2ccc(C3CCN(CC4Cc5ccc6c(C7CCC(=O)NC7=O)noc6c5C4)CC3)cc2)CC1` (stereo partly drawn) [Compound 68], the IC50 is under 10 nM.
The molecule `N#Cc1ccc(O[C@H]2CC[C@H](NC(=O)c3ccc(N4CCC(N5CC(CN6CCc7ccc8c(C9CCC(=O)NC9=O)noc8c7CC6)C5)CC4)nn3)CC2)cc1Cl` (stereo partly drawn) [Compound 93] registered an IC50 of under 10 nM.
Turning to `N#Cc1ccc(O[C@H]2CC[C@H](NC(=O)c3ccc(N4CCC(N5CC(CN6CCc7ccc8c(C9CCC(=O)NC9=O)coc8c7CC6)C5)CC4)nn3)CC2)cc1Cl` (stereo partly drawn) [Compound 99], the half-inhibitory concentration (IC50) was under 100 nM.
Take `N#Cc1ccc(O[C@H]2CC[C@H](NC(=O)c3ccc(N4CCC(N5CC(CN6Cc7cc8onc(C9CCC(=O)NC9=O)c8cc7C6)C5)CC4)nn3)CC2)cc1Cl` (stereo partly drawn) [Compound 101]: the IC50 is under 10 nM.
Molecule `N#Cc1ccc(O[C@H]2CC[C@H](NC(=O)c3cnc(N4CCC(N5CC(CN6Cc7ccc8c(C9CCC(=O)NC9=O)coc8c7C6)C5)CC4)nc3)CC2)cc1Cl` (stereo partly drawn) [Compound 103] showed an IC50 of under 10 nM.
`N#Cc1ccc(O[C@H]2CC[C@H](NC(=O)c3cnc(N4CCC(N5CC(CN6CCc7ccc8c(C9CCC(=O)NC9=O)coc8c7C6)C5)CC4)nc3)CC2)cc1Cl` (stereo partly drawn) [Compound 104] gave an IC50 of under 10 nM.
`N#Cc1ccc(O[C@H]2CC[C@H](NC(=O)c3cnc(N4CCC(N5CC(CN6CCc7c(ccc8c(C9CCC(=O)NC9=O)coc78)C6)C5)CC4)nc3)CC2)cc1Cl` (stereo partly drawn) [Compound 105] yielded an IC50 of under 10 nM.
In the case of `N#Cc1ccc(O[C@H]2CC[C@H](NC(=O)c3cnc(N4CCC(N5CC(CN6CCc7ccc8c(C9CCC(=O)NC9=O)coc8c7CC6)C5)CC4)nc3)CC2)cc1Cl` (stereo partly drawn) [Compound 106], the IC50 was under 100 nM.
The molecule `CN(c1ccc(C#N)c(Cl)c1)[C@H]1CC[C@H](NC(=O)c2cnc(N3CCC(CN4Cc5ccc6c(C7CCC(=O)NC7=O)noc6c5C4)CC3)nc2)CC1` (stereo partly drawn) [Compound 115] registered an IC50 of under 1000 nM.
The molecule `N#Cc1ccc(O[C@H]2CC[C@H](NC(=O)c3cnc(C4CCN(CC5Cc6ccc7c(C8CCC(=O)NC8=O)noc7c6C5)CC4)nc3)CC2)cc1Cl` (stereo partly drawn) [Compound 125] gave an IC50 of under 1000 nM.
The same measure, in the same setting: in the case of `N#Cc1ccc(O[C@H]2CC[C@H](NC(=O)c3cnc(C4=CCN(CC5Cc6ccc7c(C8CCC(=O)NC8=O)noc7c6C5)CC4)nc3)CC2)cc1Cl` (stereo partly drawn) [Compound 127] it was under 100 nM.

The next test deals with LNCaP cells. The test is described as follows: Assay on inhibitory activity for LNCaP cell proliferation (CCK-8). In kind it is cell-based. The following applies: 168 h incubation. The method, then: as §1, with “LNCaP” for “2.1 Assay on inhibitory activity for VCaP cell proliferation VCaP”, “2%” for “5%”, “1640” for “DMEM”
The molecule `N#Cc1ccc(O[C@H]2CC[C@H](NC(=O)c3ccc(C4CCN(CC5Cc6ccc7c(C8CCC(=O)NC8=O)noc7c6C5)CC4)nn3)CC2)cc1Cl` (stereo partly drawn) [Compound 31] yielded an IC50 of under 1000 nM.
`N#Cc1ccc(O[C@H]2CC[C@H](NC(=O)c3ccc(C4CCN(CC5Cc6ccc7c(C8CCC(=O)NC8=O)coc7c6C5)CC4)nn3)CC2)cc1Cl` (stereo partly drawn) [Compound 33]: the IC50 is under 1000 nM.

Staying with this test, now noted: Homo sapiens, 168 h incubation.
`N#Cc1ccc(O[C@H]2CC[C@H](NC(=O)c3ccc(C4CCN(C[C@H]5C[C@@H](n6ccc7c8c(C9CCC(=O)NC9=O)noc8ccc76)C5)CC4)nn3)CC2)cc1Cl` (single isomer, unassigned) [Compound 51] returned an IC50 of under 1000 nM.
Molecule `N#Cc1ccc(O[C@H]2CC[C@H](NC(=O)c3ccc(C4CCN(C[C@H]5C[C@H](n6ccc7c8c(C9CCC(=O)NC9=O)noc8ccc76)C5)CC4)nn3)CC2)cc1Cl` (single isomer, unassigned) [Compound 52] displayed an IC50 of under 1000 nM.
In turn, `N#Cc1ccc(O[C@H]2CC[C@H](NC(=O)c3ccc(N4CCC(N5CCc6ccc7c(C8CCC(=O)NC8=O)noc7c6CC5)CC4)nn3)CC2)cc1Cl` (stereo partly drawn) [Compound 23] gave an IC50 of under 1000 nM.
The same measure, in the same setting: to `N#Cc1ccc(O[C@H]2CC[C@H](NC(=O)c3ccc(N4CCN(CC5Cc6ccc7c(C8CCC(=O)NC8=O)coc7c6C5)CC4)nn3)CC2)cc1Cl` (stereo partly drawn) [Compound 28] belongs under 1000 nM; to `N#Cc1ccc(O[C@H]2CC[C@H](NC(=O)c3ccc(N4CCN(CC5Cc6cc(C7CCC(=O)NC7=O)c7ccoc7c6C5)CC4)nn3)CC2)cc1Cl` (stereo partly drawn) [Compound 29], under 1000 nM; to `N#Cc1ccc(O[C@H]2CC[C@H](NC(=O)c3ccc(C4CCN(CC5Cc6ccc7c(C8CCC(=O)NC8=O)noc7c6C5)CC4)nn3)CC2)cc1Cl` (stereo partly drawn) [Compound 30], under 1000 nM.
Take `N#Cc1ccc(O[C@H]2CC[C@H](NC(=O)c3ccc(C4CCN(CC5Cc6ccc7c(C8CCC(=O)NC8=O)coc7c6C5)CC4)nn3)CC2)cc1Cl` (stereo partly drawn) [Compound 32]: the IC50 was under 1000 nM.
`N#Cc1ccc(O[C@H]2CC[C@H](NC(=O)c3ccc(N4CCC(CN5CC(n6ccc7c8c(C9CCC(=O)NC9=O)noc8ccc76)C5)CC4)nn3)CC2)cc1Cl` (stereo partly drawn) [Compound 38]: the IC50 was under 1000 nM.
Same read-out and setting: in the case of `N#Cc1ccc(O[C@H]2CC[C@H](NC(=O)c3ccc(N4CCC(N5CC(n6ccc7c8c(C9CCC(=O)NC9=O)noc8ccc76)C5)CC4)nn3)CC2)cc1Cl` (stereo partly drawn) [Compound 39] it was under 1000 nM.
Take `N#Cc1ccc(O[C@H]2CC[C@H](NC(=O)c3ccc(N4CCC(N5CCC(n6ccc7c8c(C9CCC(=O)NC9=O)noc8ccc76)CC5)CC4)nn3)CC2)cc1Cl` (stereo partly drawn) [Compound 40]: the IC50 is under 1000 nM.
`N#Cc1ccc(O[C@H]2CC[C@H](NC(=O)c3ccc(N4CCC(CN5CCC(n6ccc7c8c(C9CCC(=O)NC9=O)noc8ccc76)CC5)CC4)nn3)CC2)cc1Cl` (stereo partly drawn) [Compound 41] gave an IC50 of under 1000 nM.
With `N#Cc1ccc(O[C@H]2CC[C@H](NC(=O)c3ccc(N4CCC(N5CC(n6ncc7c8c(C9CCC(=O)NC9=O)noc8ccc76)C5)CC4)nn3)CC2)cc1Cl` (stereo partly drawn) [Compound 43], the IC50 is under 1000 nM.
On the same count and under the same terms, to `N#Cc1ccc(O[C@H]2CC[C@H](NC(=O)c3ccc(N4CCC(CN5CC(n6cc7c(ccc8onc(C9CCC(=O)NC9=O)c87)n6)C5)CC4)nn3)CC2)cc1Cl` (stereo partly drawn) [Compound 44] belongs under 1000 nM; to `N#Cc1ccc(O[C@H]2CC[C@H](NC(=O)c3ccc(C4CCN(C5CC(n6ncc7c8c(C9CCC(=O)NC9=O)noc8ccc76)C5)CC4)nn3)CC2)cc1Cl` (stereo partly drawn) [Compound 46], under 1000 nM; to `N#Cc1ccc(O[C@H]2CC[C@H](NC(=O)c3ccc(C4CCN([C@H]5C[C@@H](n6ccc7c8c(C9CCC(=O)NC9=O)noc8ccc76)C5)CC4)nn3)CC2)cc1Cl` (stereo partly drawn) [Compound 49], under 1000 nM.
The same measure, in the same setting: in the case of `N#Cc1ccc(O[C@H]2CC[C@H](NC(=O)c3ccc(C4CCN([C@H]5C[C@H](n6ccc7c8c(C9CCC(=O)NC9=O)noc8ccc76)C5)CC4)nn3)CC2)cc1Cl` (stereo partly drawn) [Compound 50] it was under 1000 nM; in that of `N#Cc1ccc(O[C@H]2CC[C@H](NC(=O)c3ccc(C4CCN([C@H]5CC[C@@H](n6ccc7c8c(C9CCC(=O)NC9=O)noc8ccc76)CC5)CC4)nn3)CC2)cc1Cl` (stereo partly drawn) [Compound 54], under 1000 nM.
On to `N#Cc1ccc(O[C@H]2CC[C@H](NC(=O)c3ccc(C4CCN([C@H]5CC[C@H](n6ccc7c8c(C9CCC(=O)NC9=O)noc8ccc76)CC5)CC4)nn3)CC2)cc1Cl` (stereo partly drawn) [Compound 55], for which the IC50 was under 1000 nM.
Regarding `N#Cc1ccc(O[C@H]2CC[C@H](NC(=O)c3ccc(N4CCC(N5CC(CN6CCc7ccc8c(C9CCC(=O)NC9=O)noc8c7CC6)C5)CC4)nn3)CC2)cc1Cl` (stereo partly drawn) [Compound 93], the IC50 is under 1000 nM.
Take `N#Cc1ccc(O[C@H]2CC[C@H](NC(=O)c3ccc(N4CCC(N5CC(CN6CCc7ccc8c(C9CCC(=O)NC9=O)coc8c7CC6)C5)CC4)nn3)CC2)cc1Cl` (stereo partly drawn) [Compound 99]: the IC50 was under 1000 nM.
Still for that read-out and setting: to `N#Cc1ccc(O[C@H]2CC[C@H](NC(=O)c3ccc(N4CCC(CN5Cc6cc7onc(C8CCC(=O)NC8=O)c7cc6C5)CC4)nn3)CC2)cc1Cl` (stereo partly drawn) [Compound 100] belongs under 1000 nM.
As for `N#Cc1ccc(O[C@H]2CC[C@H](NC(=O)c3cnc(C4CCN(C5CN(CC6Cc7ccc8c(C9CCC(=O)NC9=O)coc8c7C6)C5)CC4)nc3)CC2)cc1Cl` (stereo partly drawn) [Compound 111], the IC50 is under 1000 nM.
`CN(c1ccc(C#N)c(Cl)c1)[C@H]1CC[C@H](NC(=O)c2cnc(N3CCC(CN4CCc5ccc6c(C7CCC(=O)NC7=O)noc6c5C4)CC3)nc2)CC1` (stereo partly drawn) [Compound 116] gave an IC50 of under 1000 nM.
The same measure, in the same setting: to `N#Cc1ccc(O[C@H]2CC[C@H](NC(=O)c3cnc(N4CCC(CN5CCc6ccc7c(C8CCC(=O)NC8=O)coc7c6CC5)CC4)nc3)CC2)cc1Cl` (stereo partly drawn) [Compound 135] belongs under 1000 nM; to `N#Cc1ccc(O[C@H]2CC[C@H](NC(=O)c3cnc(N4CCC(CN5Cc6ccc7c(N8CCC(=O)NC8=O)coc7c6C5)CC4)nc3)CC2)cc1Cl` [Compound 138], under 1000 nM.
Take `N#Cc1ccc(O[C@H]2CC[C@H](NC(=O)c3cnc(N4CCC(CN5CCc6ccc7c(N8CCC(=O)NC8=O)coc7c6CC5)CC4)nc3)CC2)cc1Cl` [Compound 141]: the IC50 was under 1000 nM.
Same read-out and setting: in the case of `N#Cc1ccc(O[C@H]2CC[C@H](NC(=O)c3cnc(N4CC[C@H](CN5CCc6c(ccc7c(C8CCC(=O)NC8=O)noc67)C5)C4)nc3)CC2)cc1Cl` (stereo partly drawn) [Compound 143] it was under 1000 nM.
Consider `N#Cc1ccc(O[C@H]2CC[C@H](NC(=O)c3cnc(N4CC[C@@H](CN5CCc6c(ccc7c(C8CCC(=O)NC8=O)noc67)C5)C4)nc3)CC2)cc1Cl` (stereo partly drawn) [Compound 144], for which the IC50 was under 1000 nM.

The IC50 is the concentration that inhibits the measured activity by half. Read a low IC50 as greater potency in that assay.
